Measurements from US8198317B2, “Methylenedioxy phenolic compounds and their use to treat disease” (The Ohio State University Research Foundation, priority 2008, dated 2012).

Tests used:
Type in all cases: in vivo, human
[1] = test system: Patient; assay: Treatment of a patient with recent myocardial infarction (Examples 16-18); details: oral, 1.0 to 100 mg/kg
Procedure: (§1) A person presents with sudden chest pain typically radiating to the left arm or left side of the neck, shortness of breath, nausea and palpitation with vomiting and sweating. After being evaluated with an electrocardiogram (EKG, ECG), a chest X-ray and blood tests to detect elevations in cardiac markers (blood tests to detect heart muscle damage), they are diagnosed as suffering from myocardial infarction. The patient is administered therapy such as aspirin, a drug to reduce the tendency of platelet aggregation, such as clopidogrel bisulfate, a statin, IV heparin and taken to the catheterization laboratory where they undergo stenting of the coronary artery. They are allowed to recover for a 12-24 hour period. Oral therapy with 3,4-methylenedioxy-6-nitrophenyl acetate (INV 75) (1.0 to 100 mg/kg) is started and continued for at least a year. During the follow-up visit a month later, patient reports improvement in symptoms.
as §1, with “Oral therapy with 3,4-methylenedioxy-6-nitrophenyl acetate (INV 75) (1.0 to 100 mg/kg) is started and continued for at least a year. During the follow-up visit a month later, patient reports improvement in symptoms.” left out
(§2) A person presents with sudden chest pain typically radiating to the left arm or left side of the neck, shortness of breath, nausea and palpitation with vomiting and sweating. After being evaluated with an electrocardiogram (EKG, ECG), a chest X-ray and blood tests to detect elevations in cardiac markers (blood tests to detect heart muscle damage), they are diagnosed as suffering from myocardial infarction. […]

[2] = test system: Patient; assay: Treatment of a patient with acute ST elevation myocardial infarction (Examples 13-15); details: 1.0 to 100 mg/kg intravenously
Procedure: A person presents with sudden chest pain typically radiating to the left arm or left side of the neck, shortness of breath, nausea and palpitation with vomiting and sweating. After being evaluated with an electrocardiogram (EKG, ECG), a chest X-ray and blood tests to detect elevations in cardiac markers (blood tests to detect heart muscle damage), they are diagnosed as suffering from acute ST elevation myocardial infarction. The patient is administered a composition comprising an effective amount of 3,4-methylenedioxy-6-nitrophenyl acetate (INV 75) (1.0 to 100 mg/kg) intravenously. The composition is optionally administered in conjunction with therapy such as thrombolytic drugs such as tissue plasminogen activator (tPA) or streptokinase and administration of aspirin, a drug to reduce the tendency of platelet aggregation, such as clopidogrel bisulfate, a statin, and/or heparin or a combination thereof, using dosages known to one of ordinary skill in the art. Patient reports improvement in the chest pain, shortness of breath and palpitations.
as §2, with “from acute ST elevation” for “from”, “infarction. The patient is administered a composition comprising an effective amount of 3,4-methylenedioxy-6-nitrophenyl acetate (INV 7465) (1.0 to 100 mg/kg) intravenously.” for “infarction.”
as §2, with “from acute ST elevation” for “from”

[3] = test system: Humans; assay: Prevention or delay of onset of atherosclerosis in humans (Example 23); details: 2 mg/kg to 50 mg/kg iv or im, one to six months
Procedure: Individuals with documented risk factors for atherosclerosis and having high plasma cholesterol levels have a ultrasound analysis of the coronary (IVUS), carotid (IMT) or popliteal arteries to establish a baseline measurement. A portion of these individuals are […] administered a composition comprising a compound of the present invention in an acceptable carrier at a dose of 2 mg/kg to 50 mg/kg intravenously (iv) or intramuscular (im) I to 3 times per week over a period of approximately one to six months. The following compounds are administered to these individuals: 3,4-methylenedioxy phenyl acetate (INV 73); 3,4-methylenedioxy-6-nitrophenol (INV 74); 3,4-methylenedioxy-6-nitrophenyl acetate (INV 75); 3,4-Methylenedioxy 6-nitro phenyl lipoate (INV-7465) or 3,4-Methylenedioxy phenyl lipoate (INV-7065). The other individuals receive the carrier alone. A new ultrasound analysis at the end of the treatment period indicates higher levels of plaque in the vessels of individuals receiving the carrier.

SMILES | symptoms at follow-up visit a month later [1] | chest pain, shortness of breath and palpitations [2] | preventing or reducing atherosclerosis (ultrasound, versus carrier alone) [3]
CC(=O)Oc1cc2c(cc1[N+](=O)[O-])OCO2 [INV-75, 3,4-methylenedioxy-6-nitrophenyl acetate] | improvement | improvement | effective
O=C(CCCCC1CCSS1)Oc1ccc2c(c1)OCO2 (stereo not drawn) [INV-7065, 3,4-Methylenedioxy phenyl lipoate] | improvement | improvement | effective
O=C(CCCCC1CCSS1)Oc1cc2c(cc1[N+](=O)[O-])OCO2 (stereo not drawn) [INV-7465, 3,4-Methylenedioxy 6-nitro phenyl lipoate] | improvement | improvement | effective
